Test results published in patent publication US11427567B2, “Imidazolyl pyrimidinylamine compounds as CDK2 inhibitors” (Incyte Corporation, priority 2019, dated 2022).

Molecular target: CDK2/Cyclin E1 (Homo sapiens (Human), UniProt P24941)
Experiment: CDK2/Cyclin E1 HTRF enzyme activity assay (Example A)
Assay type: biochemical
Conditions: 1 mM ATP
Protocol: Assays were conducted in white 384-well polystyrene plates in a final reaction volume of 8 μL. […] HTRF signals were read after 1 hour at room temperature on a PHERAstar FS plate reader (BMG Labtech). Data was analyzed with IDBS XLFit and GraphPad Prism 5.0 software using a three or four parameter dose response curve to determine IC50 for each compound.

| Compound | IC50 [nM] |
| --- | --- |
| CS(=O)(=O)N1CCC(Nc2ncc(C(F)(F)F)c(-c3cn(-c4cccc(CN5CCC5)c4Cl)cn3)n2)CC1 [Example 366, 4-(1-(3-(Azetidin-1-ylmethyl)-2-chlorophenyl)-1H-imidazol-4-yl)-N-(1-(methylsulfonyl)piperidin-4-yl)-5-(trifluoromethyl)pyrimi-din-2-amine] | ≤ 50 |
| CS(=O)(=O)N1CCC(Nc2ncc(C(F)(F)F)c(-c3cn(-c4ccccc4C#N)cn3)n2)CC1 [Example 31, 2-(4-(2-((1-(Methylsulfonyl)piperidin-4-yl)amino)-5-(trifluoromethyl)pyrimidin-4-yl)-1H-imidazol-1-yl)benzonitrile] | ≤ 50 |
| CN(C)CCOc1ccc(-n2cnc(-c3nc(NC4CCN(S(C)(=O)=O)CC4)ncc3C(F)(F)F)c2)c(C(F)(F)F)n1 [Example 72, 4-(1-(6-(2-(Dimethylamino)ethoxy)-2-(trifluoromethyl)pyridin-3-yl)-1H-imidazol-4-yl)-N-(1-(methylsulfonyl)piperidin-4-yl)-5-(trifluoromethyl)pyrimidin-2-amine] | ≤ 50 |
| CS(=O)(=O)N1CCC(Nc2ncc(C(F)(F)F)c(-c3cn(-c4ccc(CN5CCC5)c(F)c4Cl)cn3)n2)CC1 [Example 269, 4-(1-(4-(Azetidin-1-ylmethyl)-2-chloro-3-fluorophenyl)-1H-imidazol-4-yl)-N-(1-(methylsulfonyl)piperidin-4-yl)-5-(trifluoromethyl)pyrimidin-2-amine] | ≤ 50 |
| C[C@@]1(O)CCN(Cc2ccc(-n3cnc(-c4nc(NC5CCN(S(C)(=O)=O)CC5)ncc4C(F)(F)F)c3)c(Cl)c2)C1 [Example 181, (R)-1-(3-Chloro-4-(4-(2-((1-(methylsulfonyl)piperidin-4-yl)amino)-5-(trifluoromethyl)pyrimidin-4-yl)-1H-imidazol-1-yl)benzyl)-3-methylpyrrolidin-3-ol] | ≤ 50 |
| Cc1nc(-c2nc(NC3CCN(S(C)(=O)=O)CC3)ncc2C(F)(F)F)cn1-c1ccc(N2CC3(CCN(C)CC3)C2)cc1F [Example 104, 4-(1-(2-Fluoro-4-(7-methyl-2,7-diazaspiro[3.5]-nonan-2-yl)phenyl)-2-methyl-1H-imidazol-4-yl)-N-(1-(methylsulfonyl)-piperidin-4-yl)-5-(trifluoromethyl)-pyrimidin-2-amine] | ≤ 50 |
| CCS(=O)(=O)N1CCC(Nc2ncc(C(F)(F)F)c(-c3cn(-c4ccc(C#N)nc4C)cn3)n2)CC1 [Example 93, 5-(4-(2-((1-(Ethylsulfonyl)piperidin-4-yl)amino)-5-(trifluoromethyl)pyrimidin-4-yl)-1H-imidazol-1-yl)-6-methylpicolinonitrile] | ≤ 50 |
| CS(=O)(=O)N1CCC(Nc2ncc(C(F)(F)F)c(-c3cn(C4CCOCC4)cn3)n2)CC1 [Example 24, N-(1-(Methylsulfonyl)piperidin-4-yl)-4-(1-(tetrahydro-2H-pyran-4-yl)-1H-imidazol-4-yl)-5-(trifluoromethyl)pyrimidin-2-amine] | ≤ 50 |
| C[C@@H]1CN(S(C)(=O)=O)CC[C@@H]1Nc1ncc(C(F)(F)F)c(-c2cn(-c3ccc(CO)cc3Cl)cn2)n1 [Example 234, (3-Chloro-4-(4-(2-(((3R,4S)-3-methyl-1-(methylsulfonyl)piperidin-4-yl)amino)-5-(trifluoromethyl)pyrimidin-4-yl)-1H-imidazol-1-yl)phenyl)methanol] | ≤ 50 |
| Cc1ccc(-n2cnc(-c3nc(N[C@H]4CCN(S(=O)(=O)c5cnc(N)nc5)C[C@H]4C)ncc3C(F)(F)F)c2)c(C#N)n1 [Example 153, 3-(4-(2-(((3R,4S)-1-((2-Amino-pyrimidin-5-yl)-sulfonyl)-3-methylpiperidin-4-yl)amino)-5-(trifluoromethyl)-pyrimidin-4-yl)-1H-imidazol-1-yl)-6-methyl-picolinonitrile] | ≤ 50 |
| CC1(O)CN(Cc2cccc(-n3cnc(-c4nc(NC5CCN(S(C)(=O)=O)CC5)ncc4C(F)(F)F)c3)c2Cl)C1 [Example 362, 1-(2-Chloro-3-(4-(2-((1-(methylsulfonyl)piperidin-4-yl)amino)-5-(trifluoromethyl)pyrimi-din-4-yl)-1H-imidazol-yl)benzyl)-3-methylazetidin-3-ol] | ≤ 50 |
| C[C@]1(O)CCN(Cc2ccc(-n3cnc(-c4nc(N[C@H]5CCN(S(C)(=O)=O)C[C@H]5F)ncc4C(F)(F)F)c3)c(Cl)c2)C1 [Example 412, (S)-1-(3-Chloro-4-(4-(2-(((3R,4S)-3-fluoro-1-(methylsulfonyl)piperidin-4-yl)amino)-5-(trifluoromethyl)pyrimidin-4-yl)-1H-imidazol-1-yl)benzyl)-3-methylpyrrolidin-3-ol] | ≤ 50 |
| CS(=O)(=O)N1CCC(Nc2ncc(C(F)(F)F)c(-c3cn(-c4cccc(Cl)c4Cl)cn3)n2)CC1 [Example 60, 4-(1-(2,3-Dichlorophenyl)-1H-imidazol-4-yl)-N-(1-(methylsulfonyl)piperidin-4-yl)-5-(trifluoromethyl)pyrimidin-2-amine] | ≤ 50 |

Now from value to compound:

| IC50 [nM] | Compound |
| --- | --- |
| ≤ 50 | Cn1nccc1-c1ccc(-n2cnc(-c3nc(NC4CCN(S(C)(=O)=O)CC4)ncc3C(F)(F)F)c2)c(Cl)c1 [Example 119, 4-(1-(2-Chloro-4-(1-methyl-1H-pyrazol-5-yl)phenyl)-1H-imidazol-4-yl)-N-(1-(methylsulfonyl)piperidin-4-yl)-5-(trifluoromethyl)pyrimidin-2-amine] |
| ≤ 50 | Cc1nc(-c2nc(N[C@H]3CCN(S(C)(=O)=O)C[C@H]3F)ncc2C(F)(F)F)cn1-c1ccc(CN2CCC(C)(O)CC2)cc1F [Example 446, 1-(3-Fluoro-4-(4-(2-(((3R,4S)-3-fluoro-1-(methylsulfonyl)piperidin-4-yl)amino)-5-(trifluoromethyl)pyrimidin-4-yl)-2-methyl-1H-imidazol-1-yl)benzyl)-4-methylpiperidin-4-ol] |
| ≤ 50 | Cc1c(C#N)cccc1-n1cnc(-c2nc(NC3CCN(S(C)(=O)=O)CC3)ncc2C(F)(F)F)c1 [Example 43, 2-Methyl-3-(4-(2-((1-(methylsulfonyl)piperidin-4-yl)amino)-5-(trifluoromethyl)pyrimidin-4-yl)-1H-imidazol-1-yl)benzonitrile] |
| ≤ 50 | CC(CN(C)C)Oc1ccc(-n2cnc(-c3nc(NC4CCN(S(C)(=O)=O)CC4)ncc3C(F)(F)F)c2)c(C(F)(F)F)n1 (centres unmarked) [Example 73, 4-(1-(6-((1-(Dimethylamino)propan-2-yl)oxy)-2-(trifluoromethyl)pyridin-3-yl)-1H-imidazol-4-yl)-N-(1-(methylsulfonyl)piperidin-4-yl)-5-(trifluoromethyl)pyrimidin-2-amine] |
| ≤ 50 | CNCc1ccc(-n2cnc(-c3nc(NC4CCN(S(C)(=O)=O)CC4)ncc3C(F)(F)F)c2)c(Cl)c1 [Example 3, 4-(1-(2-Chloro-4-((methylamino)methyl)phenyl)-1H-imidazol-4-yl)-N-(1-(methylsulfonyl)piperidin-4-yl)-5-(trifluoromethyl)pyrimidin-2-amine] |
| ≤ 50 | CS(=O)(=O)N1CCC(Nc2ncc(C(F)(F)F)c(-c3cn(-c4cccc(CCNC5CC5)c4Cl)cn3)n2)CC1 [Example 371, 4-(1-(2-Chloro-3-(2-(cyclopropylamino)eth-yl)phenyl)-1H-imidazol-4-yl)-N-(1-(methylsulfonyl)piperidin-4-yl)-5-(trifluoromethyl)pyrimi-din-2-amine] |
| ≤ 50 | Cn1cc(S(=O)(=O)N2CCC(Nc3ncc(C(F)(F)F)c(-c4cn(-c5cccnc5C(F)F)cn4)n3)CC2)cn1 [Example 88, 4-(1-(2-(Difluoromethyl)pyridin-3-yl)-1H-imidazol-4-yl)-N-(1-((1-methyl-1H-pyrazol-4-yl)sulfonyl)piperidin-4-yl)-5-(trifluoromethyl) pyrimidin-2-amine] |
| ≤ 50 | Cc1c(-n2cnc(-c3nc(NC4CCN(S(=O)(=O)c5cn(C)cn5)CC4)ncc3C(F)(F)F)c2)ccnc1N [Example 9, 4-(1-(2-Amino-3-methylpyridin-4-yl)-1H-imidazol-4-yl)-N-(1-((1-methyl-1H-imidazol-4-yl)sulfonyl)piperidin-4-yl)-5-(trifluoromethyl)pyrimidin-2-amine] |
| ≤ 50 | CS(=O)(=O)N1CCC(Nc2ncc(C(F)(F)F)c(-c3cn(-c4cccnc4C(F)(F)F)cn3)n2)CC1 [Example 32, N-(1-(Methylsulfonyl)piperidin-4-yl)-5-(trifluoromethyl)-4-(1-(2-(trifluoromethyl)pyridin-3-yl)-1H-imidazol-4-yl)pyrimidin-2-amine] |
| ≤ 50 | CS(=O)(=O)N1CCC(Nc2ncc(C(F)(F)F)c(-c3cn(-c4ccc(CN5CCCCC5)cc4C#N)cn3)n2)CC1 [Example 345, 2-(4-(2-((1-(Methylsulfonyl)piperidin-4-yl)amino)-5-(trifluoromethyl)pyrimidin-4-yl)-1H-imidazol-1-yl)-5-(piperidin-1-ylmethyl)benzonitrile] |
| ≤ 50 | CS(=O)(=O)N1CCC(Nc2ncc(C(F)(F)F)c(-c3cn(-c4cccc(C#N)c4C(F)(F)F)cn3)n2)CC1 [Example 38, 3-(4-(2-((1-(Methylsulfonyl)piperidin-4-yl)amino)-5-(trifluoromethyl)pyrimidin-4-yl)-1H-imidazol-1-yl)-2-(trifluoromethyl)benzonitrile] |
| ≤ 50 | Cc1nc(-c2nc(NC3CCN(S(C)(=O)=O)CC3)ncc2C(F)(F)F)cn1-c1ccc(C2CCN(C)CC2)cc1F [Example 161, 4-(1-(2-Fluoro-4-(1-methylpiperidin-4-yl)phenyl)-2-methyl-1H-imidazol-4-yl)-N-(1-(methyl-sulfonyl)piperidin-4-yl)-5-(trifluoro-methyl)pyrimidin-2-amine] |
| ≤ 50 | CCN1CC(c2ccc(-n3cc(-c4nc(NC5CCN(S(C)(=O)=O)CC5)ncc4C(F)(F)F)nc3C)c(F)c2)C1 [Example 418, 4-(1-(4-(1-Ethylazetidin-3-yl)-2-fluorophenyl)-2-methyl-1H-imidazol-4-yl)-N-(1-(methylsulfonyl)piperidin-4-yl)-5-(trifluoromethyl)pyrimidin-2-amine] |
